In patent US8404708B2, “Dual NK1/NK3 receptor antagonists” (Hoffmann-La Roche Inc., priority 2004, dated 2013):
Like-named read-outs stand apart in the source and are kept apart here.

Key:
[1] = biological target: T1, Recombinant human NK3 (hNK3) receptor (Homo sapiens, UniProt P29371); assay: NK3 receptor binding, [3H]SR142801 displacement, membrane preparations
T1 construct: expressed in transfected cells
T1 sequence (P29371 1-465): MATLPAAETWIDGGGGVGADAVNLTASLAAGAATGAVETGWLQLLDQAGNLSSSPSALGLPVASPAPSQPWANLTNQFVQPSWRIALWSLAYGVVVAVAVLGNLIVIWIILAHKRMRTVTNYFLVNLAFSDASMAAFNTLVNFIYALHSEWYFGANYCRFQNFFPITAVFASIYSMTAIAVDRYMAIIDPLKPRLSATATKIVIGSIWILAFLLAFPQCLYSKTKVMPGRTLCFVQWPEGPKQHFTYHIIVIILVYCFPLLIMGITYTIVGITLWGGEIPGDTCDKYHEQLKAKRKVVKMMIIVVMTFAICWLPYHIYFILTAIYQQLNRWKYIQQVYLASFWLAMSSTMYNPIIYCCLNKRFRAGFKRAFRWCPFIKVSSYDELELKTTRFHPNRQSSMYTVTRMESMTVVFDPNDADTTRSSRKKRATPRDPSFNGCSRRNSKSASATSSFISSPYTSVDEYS
How it was run: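 Buffer: Tris-HCl 50 mM pH 7.4, BSA 0.1%, MnCl2 4 mM, phosphoramidon 1 μM. ~2.5 μg membrane/well, 90 min RT. NSB with SB222200 (10 μM). Vacuum filtration over 0.3% PEI-treated GF/C, cold Tris/BSA washes, scintillation count; duplicates, ≥2 experiments.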

human NK1 receptor = human NK1 receptor (Homo sapiens, UniProt P25103); assay: NK1 receptor binding, [3H]substance P displacement, CHO cell membranes
[2] = second value of the cell NK1/NK3, read-out: pKi NK3 (converted)
[3] = first value of the cell NK1/NK3, read-out: pKi NK1 (converted)
[4] = second value of the cell pKi NK1/NK3, hNK3 receptor, [3H]SR142801
[5] = first value of the cell pKi NK1/NK3, human NK1 receptor, [3H]substance P

Chain of human NK1 receptor (P25103 whole entry): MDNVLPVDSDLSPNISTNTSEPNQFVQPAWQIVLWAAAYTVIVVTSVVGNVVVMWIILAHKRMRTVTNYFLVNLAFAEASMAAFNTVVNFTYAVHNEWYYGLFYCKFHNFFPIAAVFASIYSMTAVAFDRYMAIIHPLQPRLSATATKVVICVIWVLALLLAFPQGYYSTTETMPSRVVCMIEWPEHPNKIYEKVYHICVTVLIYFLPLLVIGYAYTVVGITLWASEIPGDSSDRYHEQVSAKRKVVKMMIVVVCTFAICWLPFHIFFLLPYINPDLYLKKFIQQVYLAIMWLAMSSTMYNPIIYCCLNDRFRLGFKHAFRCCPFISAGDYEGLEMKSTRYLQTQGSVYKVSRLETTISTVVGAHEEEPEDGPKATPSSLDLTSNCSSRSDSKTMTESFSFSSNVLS

Row | SMILES | Ki [1, 2] | Ki (human NK1 receptor; [3]) | Ki [1, 4] | Ki (human NK1 receptor; [5])
1 | Cc1ccccc1-c1cc(N2C[C@H](O)C[C@H]2CO)ncc1N(C)C(=O)C(C)(C)c1cc(C(F)(F)F)cc(C(F)(F)F)c1 [Example 216, (2S,4R)-2-(3,5-Bis-trifluoromethyl-phenyl)-N-[6-(4-hydroxy-2-hydroxymethyl-pyrrolidin-1-yl)-4-o-tolyl-pyridin-3-yl]-N-methyl-isobutyramide] | 0.794 nM | 1.35 nM | – | –
2 | CN(C(=O)C(C)(C)c1cc(C(F)(F)F)cc(C(F)(F)F)c1)c1cnc(N2C[C@H](O)C[C@H]2CO)cc1-c1ccc(F)cc1C=O [Example 222, (2S,4R)-2-(3,5-Bis-trifluoromethyl-phenyl)-N-[4-(4-fluoro-2-formyl-phenyl)-6-(4-hydroxy-2-hydroxymethyl-pyrrolidin-1-yl)-pyridin-3-yl]-N-methyl-isobutyramide] | 1.02 nM | 1.05 nM | – | –
3 | Cc1cc(F)ccc1-c1cc(N2CCC[C@H]2CO)ncc1N(C)C(=O)C(C)(C)c1cccc(C(F)(F)F)c1 [Example 26, (S)-N-[4-(4-Fluoro-2-methyl-phenyl)-6-(2-hydroxymethyl-pyrrolidin-1-yl)-pyridin-3-yl]-N-methyl-2-(3-trifluoromethyl-phenyl)-isobutyramide] | – | – | 5.75 nM | 3.02 nM
4 | COc1cc(Cl)cc(C(C)(C)C(=O)N(C)c2cnc(N3CCC[C@H]3CO)cc2-c2ccc(F)cc2C)c1 [Example 30, (S)-2-(3-Chloro-5-methoxy-phenyl)-N-[4-(4-fluoro-2-methyl-phenyl)-6-(2-hydroxymethyl-pyrrolidin-1-yl)-pyridin-3-yl]-N-methyl-isobutyramide] | – | – | 3.55 nM | 3.72 nM
5 | CN(C(=O)C(C)(C)c1cc(C(F)(F)F)cc(C(F)(F)F)c1)c1cnc(N2C[C@@H](O)C[C@H]2CO)cc1-c1ccc(Cl)c(Cl)c1 [Example 252, (2S,4S)-2-(3,5-Bis-trifluoromethyl-phenyl)-N-[4-(3,4-dichloro-phenyl)-6-(4-hydroxy-2-hydroxymethyl-pyrrolidin-1-yl)-pyridin-3-yl]-N-methyl-isobutyramide] | 6.17 nM | 1.66 nM | – | –
6 | CN(C(=O)C(C)(C)c1cc(C(F)(F)F)cc(C(F)(F)F)c1)c1cnc(N2CC[C@H](O)[C@H]2CO)cc1-c1cc(Cl)ccc1Cl [Example 270, (2R,3S)-2-(3,5-Bis-trifluoromethyl-phenyl)-N-[4-(2,5-dichloro-phenyl)-6-(3-hydroxy-2-hydroxymethyl-pyrrolidin-1-yl)-pyridin-3-yl]-N-methyl-isobutyramide] | 2.19 nM | 2.63 nM | – | –
7 | Cc1ccccc1-c1cc(N2C[C@H](O)C[C@@H](O)C2)ncc1N(C)C(=O)C(C)(C)c1cc(C(F)(F)F)cc(C(F)(F)F)c1 [Example 179, (3R,5R)-2-(3,5-Bis-trifluoromethyl-phenyl)-N-(3,5-dihydroxy-4′-o-tolyl-3,4,5,6-tetrahydro-2H-[1,2′]bipyridinyl-5′-yl)-N-methyl-isobutyramide] | – | – | 4.07 nM | 1.51 nM
8 | CC(=O)N1CCCN(c2cc(-c3ccccc3Cl)c(N(C)C(=O)C(C)(C)c3cc(C(F)(F)F)cc(C(F)(F)F)c3)cn2)CC1 [Example 63, N-[6-(4-Acetyl-[1,4]diazepan-1-yl)-4-(2-chloro-phenyl)-pyridin-3-yl]-2-(3,5-bis-trifluoromethyl-phenyl)-N-methyl-isobutyramide] | – | – | 1.17 nM | 1.82 nM
9 | Cc1cc(-c2cc(N3C[C@H](O)C[C@H]3CO)ncc2N(C)C(=O)C(C)(C)c2cc(C(F)(F)F)cc(C(F)(F)F)c2)ccc1F [Example 211, (2S,4R)-2-(3,5-Bis-trifluoromethyl-phenyl)-N-[4-(4-fluoro-3-methyl-phenyl)-6-(4-hydroxy-2-hydroxymethyl-pyrrolidin-1-yl)-pyridin-3-yl]-N-methyl-isobutyramide] | 15.5 nM | 1.66 nM | – | –
10 | Cc1ccccc1-c1cc(N2CCS(=O)(=O)CC2CO)ncc1N(C)C(=O)C(C)(C)c1cc(C(F)(F)F)cc(C(F)(F)F)c1 (racemic) [Example 178, (RS)-2-(3,5-Bis-trifluoromethyl-phenyl)-N-[6-(3-hydroxymethyl-1,1-dioxo-1λ^6-thiomorpholin-4-yl)-4-o-tolyl-pyridin-3-yl]-N-methyl-isobutyramide] | – | – | 3.47 nM | 0.933 nM
11 | Cc1cc(F)ccc1-c1cc(N[C@H]2CCC[C@@H]2O)ncc1N(C)C(=O)C(C)(C)c1cc(C(F)(F)F)cc(C(F)(F)F)c1 [Example 154, (1S,2S)-2-(3,5-Bis-trifluoromethyl-phenyl)-N-[4-(4-fluoro-2-methyl-phenyl)-6-(2-hydroxy-cyclopentylamino)-pyridin-3-yl]-N-methyl-isobutyramide] | – | – | 5.75 nM | 3.16 nM
12 | CN(C(=O)C(C)(C)c1cc(C(F)(F)F)cc(C(F)(F)F)c1)c1cnc(NC[C@H](O)CO)cc1-c1ccccc1Cl [Example 125, (S)-2-(3,5-Bis-trifluoromethyl-phenyl)-N-[4-(2-chloro-phenyl)-6-(2,3-dihydroxy-propylamino)-pyridin-3-yl]-N-methyl-isobutyramide] | – | – | 13.8 nM | 2.82 nM
13 | CN(C(=O)C(C)(C)c1cc(C(F)(F)F)cc(C(F)(F)F)c1)c1cnc(N2CC[C@@H](O)[C@H](O)C2)cc1-c1ccccc1Cl (racemic) [Example 188, (3RS,4RS)-2-(3,5-Bis-trifluoromethyl-phenyl)-N-[4′-(2-chloro-phenyl)-3,4-dihydroxy-3,4,5,6-tetrahydro-2H-[1,2′]bipyridinyl-5′-yl]-N-methyl-isobutyramide] | – | – | 15.5 nM | 1.32 nM
14 | CN(C(=O)C(C)(C)c1cc(C(F)(F)F)cc(C(F)(F)F)c1)c1cnc(N2C[C@H](O)C[C@H]2CO)cc1-c1cccc(F)c1 [Example 207, (2S,4R)-2-(3,5-Bis-trifluoromethyl-phenyl)-N-[4-(3-fluoro-phenyl)-6-(4-hydroxy-2-hydroxymethyl-pyrrolidin-1-yl)-pyridin-3-yl]-N-methyl-isobutyramide] | 4.68 nM | 1.38 nM | – | –
15 | Cc1ccccc1-c1cc(NC[C@H](C)O)ncc1N(C)C(=O)C(C)(C)c1cc(C(F)(F)F)cc(C(F)(F)F)c1 [Example 120, (S)-2-(3,5-Bis-trifluoromethyl-phenyl)-N-[6-(2-hydroxy-propylamino)-4-o-tolyl-pyridin-3-yl]-N-methyl-isobutyramide] | – | – | 10 nM | 1.38 nM
16 | Cc1cc(F)ccc1-c1cc(N2CC(=O)C[C@H]2CO)ncc1N(C)C(=O)C(C)(C)c1cc(C(F)(F)F)cc(C(F)(F)F)c1 [Example 296, (S)-2-(3,5-Bis-trifluoromethyl-phenyl)-N-[4-(4-fluoro-2-methyl-phenyl)-6-(2-hydroxymethyl-4-oxo-pyrrolidin-1-yl)-pyridin-3-yl]-N-methyl-isobutyramide] | 1.74 nM | 2.51 nM | – | –
17 | CN(C(=O)C(C)(C)c1cc(C(F)(F)F)cc(C(F)(F)F)c1)c1cnc(N2C[C@H](O)C[C@H]2CO)cc1-c1ccccc1S(C)(=O)=O [Example 218, (2S,4R)-2-(3,5-Bis-trifluoromethyl-phenyl)-N-[6-(4-hydroxy-2-hydroxymethyl-pyrrolidin-1-yl)-4-(2-methanesulfonyl-phenyl)-pyridin-3-yl]-N-methyl-isobutyramide] | 7.24 nM | 2.63 nM | – | –
18 | Cc1ccccc1-c1cc(N2CCC[C@H]2CO)ncc1N(C)C(=O)C(C)(C)c1cc(F)cc(F)c1 [Example 15, (S)-2-(3,5-Difluoro-phenyl)-N-[6-(2-hydroxymethyl-pyrrolidin-1-yl)-4-o-tolyl-pyridin-3-yl]-N-methyl-isobutyramide] | – | – | 4.47 nM | 6.31 nM
